Results on 33 compounds are retold here after patent US8435980B2 (AbbVie Inc., priority 2009, dated 2013).

T1 sequence (O00311 whole entry): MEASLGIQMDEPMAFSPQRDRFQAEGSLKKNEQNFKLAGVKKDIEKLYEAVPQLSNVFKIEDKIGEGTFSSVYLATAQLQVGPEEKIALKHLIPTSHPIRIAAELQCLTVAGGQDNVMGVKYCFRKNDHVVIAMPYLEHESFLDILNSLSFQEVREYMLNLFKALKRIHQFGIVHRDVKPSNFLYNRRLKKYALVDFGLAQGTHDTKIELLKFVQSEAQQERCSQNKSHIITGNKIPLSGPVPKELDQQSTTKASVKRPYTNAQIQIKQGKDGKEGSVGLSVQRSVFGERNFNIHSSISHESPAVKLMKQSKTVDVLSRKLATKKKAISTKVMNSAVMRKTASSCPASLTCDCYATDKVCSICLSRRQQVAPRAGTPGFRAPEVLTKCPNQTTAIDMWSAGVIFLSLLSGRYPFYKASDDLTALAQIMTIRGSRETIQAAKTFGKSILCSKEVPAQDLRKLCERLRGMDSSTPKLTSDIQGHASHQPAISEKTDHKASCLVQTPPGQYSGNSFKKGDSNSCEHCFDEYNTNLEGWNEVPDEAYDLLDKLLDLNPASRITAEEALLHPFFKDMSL
T1 sequence (Q9UBU7 whole entry partner): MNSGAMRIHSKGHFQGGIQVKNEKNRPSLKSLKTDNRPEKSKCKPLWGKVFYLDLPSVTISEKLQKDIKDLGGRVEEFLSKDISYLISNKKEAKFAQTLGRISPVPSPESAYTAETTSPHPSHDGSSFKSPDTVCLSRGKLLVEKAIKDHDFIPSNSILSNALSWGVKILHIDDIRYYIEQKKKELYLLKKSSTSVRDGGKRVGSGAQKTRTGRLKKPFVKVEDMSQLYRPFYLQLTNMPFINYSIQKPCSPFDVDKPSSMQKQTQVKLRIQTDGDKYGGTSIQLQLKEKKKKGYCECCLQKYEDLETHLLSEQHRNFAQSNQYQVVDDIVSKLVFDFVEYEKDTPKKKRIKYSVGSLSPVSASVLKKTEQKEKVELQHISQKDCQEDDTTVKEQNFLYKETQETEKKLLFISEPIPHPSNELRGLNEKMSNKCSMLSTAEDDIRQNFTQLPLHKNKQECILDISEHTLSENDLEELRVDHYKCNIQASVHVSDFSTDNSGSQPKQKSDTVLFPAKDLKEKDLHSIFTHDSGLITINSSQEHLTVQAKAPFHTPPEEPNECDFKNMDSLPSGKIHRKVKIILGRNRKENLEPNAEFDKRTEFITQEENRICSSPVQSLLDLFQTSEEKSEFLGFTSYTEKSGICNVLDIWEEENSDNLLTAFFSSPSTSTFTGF

This experiment has as its target T1, Cdc7 (BEV coexpressed huCDC7/DBF4) (Homo sapiens, UniProt O00311).
T1 construct: made in house; host or cells: BEV (baculovirus expression vector) co-expression; insect cells are implied but no cell line is named
The experiment in a line: Cdc7 enzyme inhibition assay ([33P]ATP, biotinylated peptide substrate, FlashPlate). It is filed as biochemical. To be noted: Table 3; enzyme inhibition data (Ki). The procedure: Cdc7 (BEV coexpressed huCDC7/DBF4) is prepared internally. Cdc7 assays are conducted as follows with final concentrations as listed. […] Reactions are quenched after 1 hr by the addition of 90 μL stop buffer (50 mM EDTA, 2M NaCl). […] (Ki) for exemplary compounds.
The term Ki denotes the dissociation constant of the complex between target and ligand, obtained from inhibition or displacement. Turning to `CS(=O)(=O)Nc1cnc2[nH]cc(-c3cc(Cl)nc(NC4CCCCC4)c3)c2c1` [Example 256, N-{3-[2-chloro-6-(cyclohexylamino)pyridin-4-yl]-1H-pyrrolo[2,3-b]pyridin-5-yl}methanesulfonamide], the Ki was below 10 nM. Turning to `COc1cnc2[nH]cc(-c3cc(Cl)nc(NC4CCC(CC5CCC(NC(=O)c6cccnc6)CC5)CC4)c3)c2c1` (stereo not drawn) [Example 257, N-{4-[(4-{[6-chloro-4-(5-methoxy-1H-pyrrolo[2,3-b]pyridin-3-yl)pyridin-2-yl]amino}cyclohexyl)methyl]cyclohexyl}pyridine-3-carboxamide], the Ki is below 10 nM. The compound `COc1cnc2[nH]cc(-c3cc(Cl)nc(N[C@H]4CC[C@H](NC(=O)CNCC(C)(C)C)CC4)c3)c2c1` [Example 258, N-(trans-4-{[6-chloro-4-(5-methoxy-1H-pyrrolo[2,3-b]pyridin-3-yl)pyridin-2-yl]amino}cyclohexyl)-N^2-(2,2-dimethylpropyl)glycinamide] yielded a Ki below 10 nM.

Consider `COc1cnc2[nH]cc(-c3cc(Cl)nc(NC4CCC(CC5CCC(N(C)C)CC5)CC4)c3)c2c1` (stereo not drawn) [Example 259, 6-chloro-N-(4-{[4-(dimethylamino)cyclohexyl]methyl}cyclohexyl)-4-(5-methoxy-1H-pyrrolo[2,3-b]pyridin-3-yl)pyridin-2-amine], for which the Ki was below 10 nM. In turn, `COc1cnc2[nH]cc(-c3cc(Cl)nc(NC4CCCC(NS(=O)(=O)C5CC5)C4)c3)c2c1` (stereo not drawn) [Example 260, N-(3-{[6-chloro-4-(5-methoxy-1H-pyrrolo[2,3-b]pyridin-3-yl)pyridin-2-yl]amino}cyclohexyl)cyclopropanesulfonamide] registered a Ki below 10 nM. Turning to `COc1cnc2[nH]cc(-c3cc(Cl)nc(NC4CCCC(NC(C)=O)C4)c3)c2c1` (stereo not drawn) [Example 261, N-(3-{[6-chloro-4-(5-methoxy-1H-pyrrolo[2,3-b]pyridin-3-yl)pyridin-2-yl]amino}cyclohexyl)acetamide], the Ki is below 10 nM.

`COc1cnc2[nH]cc(-c3cc(Cl)nc(NC4CCCC(NS(=O)(=O)c5cccs5)C4)c3)c2c1` (stereo not drawn) [Example 262, N-(3-{[6-chloro-4-(5-methoxy-1H-pyrrolo[2,3-b]pyridin-3-yl)pyridin-2-yl]amino}cyclohexyl)thiophene-2-sulfonamide] showed a Ki below 10 nM. The value for `COc1cnc2[nH]cc(-c3cc(Cl)nc(NC4CCCC(NC(=O)CN5CCCC5)C4)c3)c2c1` (stereo not drawn) [Example 263, N-(3-{[6-chloro-4-(5-methoxy-1H-pyrrolo[2,3-b]pyridin-3-yl)pyridin-2-yl]-amino}cyclohexyl)-2-(pyrrolidin-1-yl)acetamide] was below 10 nM; that for `Clc1cc(-c2c[nH]c3ncccc23)nc(NCC2CCCO2)n1` (stereo not drawn) [Example 265, 4-chloro-6-(1H-pyrrolo[2,3-b]pyridin-3-yl)-N-(tetrahydrofuran-2-ylmethyl)pyrimidin-2-amine] was below 10 nM; that for `Clc1cc(-c2c[nH]c3ncccc23)nc(NCc2ccncc2)n1` [Example 266, 4-chloro-N-(pyridin-4-ylmethyl)-6-(1H-pyrrolo[2,3-b]pyridin-3-yl)pyrimidin-2-amine] was below 10 nM.

`Clc1cc(-c2c[nH]c3ncccc23)nc(NCc2cccnc2)n1` [Example 267, 4-chloro-N-(pyridin-3-ylmethyl)-6-(1H-pyrrolo[2,3-b]pyridin-3-yl)pyrimidin-2-amine] had a Ki below 10 nM. As for `Clc1cc(-c2c[nH]c3ncccc23)nc(NCc2ccccn2)n1` [Example 268, 4-chloro-N-(pyridin-2-ylmethyl)-6-(1H-pyrrolo[2,3-b]pyridin-3-yl)pyrimidin-2-amine], the Ki is below 10 nM. The compound `CN(C)c1nc(Cl)cc(-c2c[nH]c3ncccc23)n1` [Example 269, 4-chloro-N,N-dimethyl-6-(1H-pyrrolo[2,3-b]pyridin-3-yl)pyrimidin-2-amine] came in with a Ki below 10 nM.

`O=C(N[C@H]1CC[C@H](Nc2nc(Cl)cc(-c3c[nH]c4ncccc34)n2)CC1)C1CC1` [Example 271, N-(trans-4-{[4-chloro-6-(1H-pyrrolo[2,3-b]pyridin-3-yl)pyrimidin-2-yl]amino}cyclohexyl)cyclopropanecarboxamide] returned a Ki below 10 nM. With `O=C(NC1CCCC(Nc2nc(Cl)cc(-c3c[nH]c4ncccc34)n2)C1)C1CC1` (stereo not drawn) [Example 272, N-(3-{[4-chloro-6-(1H-pyrrolo[2,3-b]pyridin-3-yl)pyrimidin-2-yl]amino}cyclohexyl)cyclopropanecarboxamide], the Ki is below 10 nM. As to `Clc1cc(-c2c[nH]c3ncccc23)nc(NC2CCCC(NC3CCC3)C2)n1` (stereo not drawn) [Example 274, N-[4-chloro-6-(1H-pyrrolo[2,3-b]pyridin-3-yl)pyrimidin-2-yl]-N′-cyclobutylcyclohexane-1,3-diamine], the Ki is below 10 nM. With `Clc1cc(-c2c[nH]c3ncccc23)nc(N[C@H]2CC[C@H](NC3CCC3)CC2)n1` [Example 275, trans-N-[4-chloro-6-(1H-pyrrolo[2,3-b]pyridin-3-yl)pyrimidin-2-yl]-N′-cyclobutylcyclohexane-1,4-diamine], the Ki was below 10 nM. For `COCCNc1nc(Cl)cc(-c2c[nH]c3ncccc23)n1` [Example 279, 4-chloro-N-(2-methoxyethyl)-6-(1H-pyrrolo[2,3-b]pyridin-3-yl)pyrimidin-2-amine], the Ki is below 10 nM. `O=C(Nc1ccccc1)N[C@H]1CC[C@H](Nc2nc(Cl)cc(-c3c[nH]c4ncccc34)n2)CC1` [Example 281, 1-(trans-4-{[4-chloro-6-(1H-pyrrolo[2,3-b]pyridin-3-yl)pyrimidin-2-yl]amino}cyclohexyl)-3-phenylurea] gave a Ki below 10 nM. With `O=S(=O)(N[C@H]1CC[C@H](Nc2nc(Cl)cc(-c3c[nH]c4ncccc34)n2)CC1)C1CC1` [Example 282, N-(trans-4-{[4-chloro-6-(1H-pyrrolo[2,3-b]pyridin-3-yl)pyrimidin-2-yl]amino}cyclohexyl)cyclopropanesulfonamide], the Ki was below 10 nM.

Compound `Cc1noc(C)c1S(=O)(=O)NC1CCC(Nc2cc(-c3c[nH]c4ncccc34)cc(Cl)n2)CC1` (stereo not drawn) [Example 283, N-(4-{[6-chloro-4-(1H-pyrrolo[2,3-b]pyridin-3-yl)pyridin-2-yl]amino}cyclohexyl)-3,5-dimethyl-1,2-oxazole-4-sulfonamide] had a Ki below 10 nM. Regarding `COC[C@H](Cc1ccccc1)Nc1cc(-c2c[nH]c3ncccc23)cc(Cl)n1` [Example 284, 6-chloro-N-[(2S)-1-methoxy-3-phenylpropan-2-yl]-4-(1H-pyrrolo[2,3-b]pyridin-3-yl)pyridin-2-amine], the Ki was below 10 nM. In turn, `Clc1cc(-c2c[nH]c3ncccc23)cc(NC2CCCC(NC3CCCC3)C2)n1` (stereo not drawn) [Example 285, N-[6-chloro-4-(1H-pyrrolo[2,3-b]pyridin-3-yl)pyridin-2-yl]-N′-cyclopentylcyclohexane-1,3-diamine] showed a Ki of 10 to 100 nM. Consider `CCOC(=O)CNC(=O)NC1CCC(Nc2cc(-c3c[nH]c4ncccc34)cc(Cl)n2)CC1` (stereo not drawn) [Example 286, ethyl N-[(4-{[6-chloro-4-(1H-pyrrolo[2,3-b]pyridin-3-yl)pyridin-2-yl]amino}cyclohexyl)carbamoyl]glycinate], for which the Ki is below 10 nM. The value for `CC(C)NC(=O)NC1CCC(Nc2cc(-c3c[nH]c4ncccc34)cc(Cl)n2)CC1` (stereo not drawn) [Example 287, 1-(4-{[6-chloro-4-(1H-pyrrolo[2,3-b]pyridin-3-yl)pyridin-2-yl]amino}cyclohexyl)-3-propan-2-ylurea] was below 10 nM; that for `CC(C)(C)NC(=O)NC1CCC(Nc2cc(-c3c[nH]c4ncccc34)cc(Cl)n2)CC1` (stereo not drawn) [Example 288, 1-tert-butyl-3-(4-{[6-chloro-4-(1H-pyrrolo[2,3-b]pyridin-3-yl)pyridin-2-yl]amino}cyclohexyl)urea] was below 10 nM; that for `COCC(=O)NC1CCC(Nc2cc(-c3c[nH]c4ncccc34)cc(Cl)n2)CC1` (stereo not drawn) [Example 289, N-(4-{[6-chloro-4-(1H-pyrrolo[2,3-b]pyridin-3-yl)pyridin-2-yl]amino}cyclohexyl)-2-methoxyacetamide] was below 10 nM.

Compound `Clc1cc(-c2c[nH]c3ncccc23)cc(NC2CCCC(NCc3nccs3)C2)n1` (stereo not drawn) [Example 290, N-[6-chloro-4-(1H-pyrrolo[2,3-b]pyridin-3-yl)pyridin-2-yl]-N′-(1,3-thiazol-2-ylmethyl)cyclohexane-1,3-diamine] yielded a Ki below 10 nM.

For `Clc1cc(-c2c[nH]c3ncccc23)cc(NC2CCCC(NCc3cccc(CN4CCCCC4)c3)C2)n1` (stereo not drawn) [Example 291, N-[6-chloro-4-(1H-pyrrolo[2,3-b]pyridin-3-yl)pyridin-2-yl]-N′-[3-(piperidin-1-ylmethyl)benzyl]cyclohexane-1,3-diamine], the Ki was below 10 nM. The value for `CCOCC(=O)NC1CCCC(Nc2cc(-c3c[nH]c4ncccc34)cc(Cl)n2)C1` (stereo not drawn) [Example 292, N-(3-{[6-chloro-4-(1H-pyrrolo[2,3-b]pyridin-3-yl)pyridin-2-yl]amino}cyclohexyl)-2-ethoxyacetamide] was below 10 nM; that for `O=C(COc1ccccc1)NC1CCCC(Nc2cc(-c3c[nH]c4ncccc34)cc(Cl)n2)C1` (stereo not drawn) [Example 293, N-(3-{[6-chloro-4-(1H-pyrrolo[2,3-b]pyridin-3-yl)pyridin-2-yl]amino}cyclohexyl)-2-phenoxyacetamide] was below 10 nM; that for `O=C(NC1CCCC(Nc2cc(-c3c[nH]c4ncccc34)cc(Cl)n2)C1)c1cnccn1` (stereo not drawn) [Example 294, N-(3-{[6-chloro-4-(1H-pyrrolo[2,3-b]pyridin-3-yl)pyridin-2-yl]amino}cyclohexyl)pyrazine-2-carboxamide] was below 10 nM. The same measure for `O=C(NC1CCCC(Nc2cc(-c3c[nH]c4ncccc34)cc(Cl)n2)C1)C1CCN1` (stereo not drawn) [Example 295, N-(3-{[6-chloro-4-(1H-pyrrolo[2,3-b]pyridin-3-yl)pyridin-2-yl]amino}cyclohexyl)azetidine-2-carboxamide]: below 10 nM.
